According to US20230270754A1, “COMBINATION THERAPY FOR INHALATION ADMINISTRATION” (Chemo Research, S.L., priority 2020, published 2023):

Key:
Format in all cases: physicochemical
[1] = Active ingredient content after filtration (assay by Reverse Phase HPLC), Example 1; details: triple combination BDP/GB/FF; for Formulation 1 Assay (%) active ingredient content compared to the theoretical amount: Formulation 1: 70% Ethanol; for Formulation 2 Assay (%) active ingredient content compared to the theoretical amount: Formulation 2: 96% Ethanol
Experimental: Both formulations were filtrated, and individual assay of all active ingredients were tested by Reverse Phase HPLC.
Three independent Reverse Phase HPLC analytical methods were used for the determination of each active ingredient in all the analyses.

[2] = Delivered dose by dose unit sampling apparatus (DUSA), Example 2
Excerpt: Active pharmaceutical ingredients (APIs) deposited in the sampling apparatus were quantitatively recovered with a DUSA shaker (Copley Scientific Ltd) and methanol. APIs were, then, quantified by HPLC with the same methods described in Example 1.
Results are expressed as the average of 5 measurements.

[3] = APSD by NGI, Example 2 Trimbow pMDI vs soft mist inhaler
Experimental: (§1) The in vitro aerodynamic assessment was carried using a next generation impactor, NGI (Copley Scientific Ltd), equipped with a mouthpiece adapter for the insertion of the inhaler, an induction port and an internal filter holder (IFH) to capture the smaller particles. The product was tested as per procedure detailed in the European pharmacopoeia chapter 2.9.18 (apparatus E) and US Pharmacopeia chapter <601> (apparatus 6) for Soft Mist Inhalers.
The NGI was cooled to 5° C. for at least 75 min. The cooling chamber was then opened and, after 30 minutes, the NGI was connected to a HCP5 vacuum pump (Copley Scientific Ltd). […]
(§2) After the required actuations, the particles deposited on the different surfaces of the impactor were extracted using a suitable diluent (methanol) and with the help of a Gentle Rocker (Copley Scientific Ltd).
(§3) Data analysis. The NGI results were plotted against the stage cut-off diameter as the mass recovered from the induction port to the filter. Fine particle fraction (FPF %), mass median aerodynamic diameter (MMAD), fine particle dose (FPD) were determined from the analysis of the NGI data.
(§4) Results are expressed as the mean value of two NGIs analysis.

[4] = APSD by NGI, Example 3 Foster pMDI vs soft mist inhaler
Experimental: as §1, with “European” for “European pharmacopoeia chapter 2.9.18 (apparatus E)”, “Pharmacopeia” for “Pharmacopeia chapter <601> (apparatus 6)”, “Inhalers and pMDIs.” for “Inhalers.”
The NGI was cooled to 5° C. for at least 75 min. The cooling chamber was then opened and, after 30 minutes, the NGI was connected to a HCP5 vacuum pump (Copley Scientific Ltd). For each experiment, ten doses were discharged into the NGI at 30 L/min for 5 seconds each.
as §2, with “Ltd). Active ingredients were then quantified by HPLC, with the same methods used for the Example 1.” for “Ltd).”
Data analysis. The NGI was plotted against the stage cut-off diameter as the mass recovered from the induction port to the filter. Fine particle fraction (FPF %) and mass median aerodynamic diameter (MMAD) were determined from the analysis of the NGI data.
as §4

[5] = APSD by NGI, Example 4 budesonide/formoterol 70% vs 96% ethanol, soft mist inhaler
Experimental: Typical System Suitability Criteria applies as per USP <621> requirements.
For the APSD evaluation Formulation 1 and 2 were filled into cartridges compatible with a soft mist inhaler (Respimat®). The in vitro aerodynamic particle size distribution of both formulations was evaluated using an impactor, the next generation impactor, NGI (Copley Scientific Ltd) equipped with a mouthpiece adapter for the insertion of the inhaler, an induction port and an internal filter holder (IFH) to capture the smaller particles. The product was tested as per procedure detailed in the European pharmacopoeia chapter 2.9.18 (apparatus E) and US Pharmacopeia chapter <601> (apparatus 6) for Soft Mist Inhalers.
(§5) The NGI was cooled to 5° C. for at least 75 min. The cooling chamber was then opened and, after 30 minutes, the NGI was connected to a HCP5 vacuum pump (Copley Scientific Ltd). For each experiment, ten doses were discharged per NGI actuated at 28.3 L/min for 5 seconds each.
(§6) After the required actuations, the particles deposited on the different surfaces of the impactor were extracted using a suitable diluent (75/25 v/v MeOH/water) and with the help of a Gentle Rocker (Copley Scientific Ltd). Active ingredients were then quantified by HPLC as described above.
as §3, §4

[6] = APSD by NGI, Example 5 Symbicort pMDI vs soft mist inhaler
Experimental: The in vitro aerodynamic particle size distribution of both formulations was evaluated using an impactor, the next generation impactor, NGI (Copley Scientific Ltd) equipped with a mouthpiece adapter for the insertion of the inhaler, an induction port and an internal filter holder (IFH) to capture the smaller particles. The product was tested as per procedure detailed in the European and US Pharmacopoeia for Soft Mist Inhalers and pMDIs.
as §5
as §6, with “HPLC, with the same methods” for “HPLC as”, “in example 4.” for “above.”
Data analysis. The NGI was plotted against the stage cut-off diameter as the mass recovered from the induction port to the filter. Fine particle fraction (FPF %), and mass median aerodynamic diameter (MMAD) were determined from the analysis of the NGI data.
as §4

[7] = Soft Mist Inhaler (Respimat) 1 actuation, triple combination in 96% ethanol
[8] = Soft Mist Inhaler (1 actuation), triple combination in 96% ethanol
[9] = Soft Mist Inhaler (1 actuation), double combination BDP/FF in 96% ethanol
[10] = Trimbow pMDI (2 actuations), table title: Foster pMDI (2 actuation)
[11] = Soft Mist Inhaler (1 actuation), budesonide/formoterol in 96% ethanol

Row | Structure (SMILES) | Formulation 1 Assay (%) active ingredient content compared to the theoretical amount [1] | Formulation 2 Assay (%) active ingredient content compared to the theoretical amount [1] | DUSA (μg) delivered dose [2, 7] | DUSA (μg) delivered dose ([2]; Trimbow pMDI 1 actuation) | FPD [3, 8] | FPF [3, 8] | IP (induction port deposition) [3, 8] | FPD ([3]; Trimbow pMDI (2 actuations)) | FPF ([3]; Trimbow pMDI (2 actuations)) | IP (induction port deposition) ([3]; Trimbow pMDI (2 actuations)) | FPF (%) [4, 9] | MMAD (μm) [4, 9] | FPF (%) [4, 10] | MMAD (μm) [4, 10] | other results
1 | COc1ccc(C[C@@H](C)NC[C@H](O)c2ccc(O)c(NC=O)c2)cc1.O.O.O=C(O)/C=C/C(=O)O (racemic) [Formoterol Fumarate] | 93.8% | 100.3% | 6.1 µg | 5.7 µg | 5.3 µg | 87.8% | 8.3% | 5.2 µg | 44.6% | 53.4% | 90.4% | 1.2 μm | 45.8% | 1.2 μm | FPD ([5]; Formulation 1 (70% EtOH)): 3.3 µg; FPF ([5]; Formulation 1 (70% EtOH)): 68.4%; MMAD ([5]; Formulation 1 (70% EtOH)): 2.7 μm; FPF ([5]; Formulation 2 (96% EtOH)): 89.7%; FPF (%) [6, 11]: 89.7%; MMAD (μm) [6, 11]: 1.1 μm; FPF (%) ([6]; Symbicort pMDI (1 actuation)): 58.7%; MMAD (μm) ([6]; Symbicort pMDI (1 actuation)): 3.3 μm
2 | CCC(=O)OCC(=O)[C@@]1(OC(=O)CC)[C@@H](C)C[C@H]2[C@@H]3CCC4=CC(=O)C=C[C@]4(C)[C@@]3(Cl)[C@@H](O)C[C@@]21C [Beclometasone Dipropionate, 9-chloro-11β,17,21-trihydroxy-16β-methylpregna-1,4-diene-3, 20-dione 17,21-dipropionate] | 40.1% | 99.7% | 97.1 µg | 98.4 µg | 91.7 µg | 87.9% | 8.3% | 86.0 µg | 42.9% | 52.9% | 91.3% | 1.1 μm | 49.4% | 1.2 μm | MMAD [3, 8]: 1.2 μm; MMAD ([3]; Trimbow pMDI (2 actuations)): 1.2 μm
